# In patent US20010036955A1, “Method of inhibiting angiogenesis” (Genentech, Inc., priority 1998, published 2001):
# *1 amine or outer side, *2 acyl side, *3 side chain or, on linkers, in order; H or OH if unused. Where a SMILES comes first, the peptide text is derived from it. Bridges are numbered along the chain shown (N, C = ends). Roman numbers before positions name the chains, in order. [ ]: non-standard residue; d: D form. Actinocin(9to1) = Cc1c2oc3c(C)ccc(C(=O)[*:1])c3nc-2c(C(=O)[*:2])c(N)c1=O; NMeV = CN[C@H](C(=O)O)C(C)C; Sar = CNCC(=O)O
# Assays:
# Type in all cases: cell-based, human
# HUVEC tube formation [1] = experiment: Endothelial tube assay (number of tubes, three-dimensional collagen gels); settings: for IC50: Homo sapiens, HUVEC in collagen gels with bFGF, VEGF and PMA, tubes counted at 48 hr, read-out: inhibition of tube formation, IC50; for inhibition of tube formation (FIG. 3B): at 100 μM; for formation of tube-like structures: endothelial cells in three-dimensional type I collagen lattice
# Experimental: In this model, endothelial cells are suspended in a three-dimensional collagen lattice of type I collagen and undergo rapid morphogenesis. Within 4 hr numerous vacuoles are observed in the majority of endothelial cells; at 24 hr the formation of tube-like structures can be observed and at 48 hr an interconnected network of tube-like structures is observed.
# Collagen gels were formed by mixing together ice-cold gelatin solution (10× M199, H2O, 0.53M NaHCO3, 200 mM L-glutamine, type I collagen, 0.1M NaOH, 100:27.2:50:10:750:62.5 by volume) and cells in 1× basal medium at a concentration of 3×10^6 cells/ml at a ratio of 4 volumes gelatin solution: 1 volume of cells. After gelation at 37 for 30 min, the gels were overlaid with IX basal medium consisting of M199 supplemented with 1%FBS, 1× ITS, 2 mM L-glutamine, 50 μg/ml ascorbic acid, 26.5 mM NaHCO3, 100 U/ml penicillin and 100 U/mil streptomycin supplemented with 40 ng/ml BFGF, 40 ng/ml VEGF and 80 nM phorbol myristate acetate (PMA). All drugs were added to the IX basal medium immediately after gelation. To quantitate tube formation, the number of tubes per high power (20× field) was determined 48 hr after addition of the basal medium Five independent fields separated by 100 μm optical sections were assessed for each well. Cytotoxicity was assessed using an XTT kit from Boehringer Mannheim (Indianapolis, Ind.).
# MMP-9 mRNA = experiment: Real time RT-PCR (Taqman) assay in HUVEC, Example 7; settings: for MMP-9 mRNA levels: 40 ng/ml, at 4 h and 24 h
# Experimental: (§1) Total RNA was extracted from HUVEC cultured in 3-D type I collagen gels for various times in 1× basal medium supplemented with 40 ng/ml bFGF, 40 ng/ml VEGF, […] PMA or the combination of PMA (80 nM), bFGF and VEGF (40 ng/mil each). […] For all mRNAs evaluated a sample of total RNA (100 ng) was added to a 50 μl RT-PCR reaction mixture according to the manufacturer's protocol (Roche Molecular Systems, Inc., Branchburg, N.J.). The thermal cycling conditions included 1 cycle at 48° C. for 30 min, 1 cycle at 95° C. for 10 min, 40 cycles at 95° C. for 15 s, at 60° C. for 1 min, and finally hold at 25° C. for 2 min. Standard curves for expression of each gene were generated by serial dilution of the total RNA isolated from U937 cells. […] Therefore, the relative mRNA expression of each gene was normalized to the level of GAPDH in the same RNA preparation.
# HUVEC tube formation [2] = experiment: Endothelial tube assay of Example 7 (average tube length, 3-D type I collagen gels)
# Experimental: Collagen gels were formed by mixing together ice-cold gelation solution (IOX M199, H2O, 0.53M NaHCO3, 200 mM L-glutamine, type I collagen, 0.1M NaOH, 100:27.2:50:10:750:62.5 by volume) and cells in 1× basal medium (see below) at a concentration of 3×10^6 cells/ml at a ratio of 4 volumes gelation solution: 1 volume of cells (18). After gelation at 37° C. for 30 min, the gels were overlaid with 1× basal medium consisting of M199 supplemented with […], 1× ITS, 2 mM L-glutamine, […] ascorbic acid, 26.5 mM NaHCO3, 100 U/ml penicillin and 100 U/ml streptomycin supplemented with 40 ng/ml bFGF, 40 ng/ml VEGF, 80 nM PMA or the combination of PMA (80 nM), bFGF and VEGF (40 ng/ml each). All drugs were added to the 1× basal medium immediately after gelation. To quantify tube formation, the average tube length was determined by measuring total tube length (long axis) in three consecutive layers of a low power (10×) field using Openlab software (Improvision Inc, England). Each layer was separated by 100 μm.
# MMP-9 secretion = experiment: Zymographic assay of HUVEC conditioned media
# Experimental: (§2) The presence of gelatinases MMP-2 and -9 in conditioned media from cultured HUVEC in 3-D type I collagen gels was analyzed by zymography. Media from different treatments or from different time points were concentrated and then 10 μl aliquots were mixed with 2 × sample buffer without reducing agent or heating. Samples were loaded on a 10% polyacrilamide gel containing 0.1% gelatin (Novex, San Diego, Calif.) for electrophoresis. In addition to using regular molecular weight markers the MMP-2 and -9 zymographic standards (Chemicon, Temecula, Calif.) were used as standards for gelatinases. The gels were incubated for 30 min at room temperature in renaturing buffer and in developing buffer for overnight at 37° C., and then stained with 0.25% Coomassie brilliant blue (Sigma). Gelatinase activity was identified as lightly stained or clear bands following destaining.
# MMP-2 secretion = experiment: Zymographic assay of HUVEC conditioned media
# Experimental: as §2
# MMP-2 mRNA = experiment: Real time RT-PCR (Taqman) assay in HUVEC, Example 7; settings: 100 μM; 24 h
# Experimental: as §1
# HUVEC proliferation = experiment: Proliferation assay (BrdU incorporation); settings: type I collagen-coated surface, VEGF, bFGF and PMA
# Experimental: Cells were cultured in above medium in the presence of drugs or vehicle for 4 hr. 5 μl (100 μM) of 5′-bromo-2′-deoxyuridine (BrdU) was added in a final volume of 100 μl/well and cells were incubated for another 20 hr. BrdU incorporation was evaluated by an ELISA kit from Boehringer Mannheim (Indianapolis, Ind.).
# [3] = PMA 0.8, 8, 80 and 800 nM for 24 h
# [4] = at concentrations of up to 100 μM
compound,measurement,setting,value
CC1(COc2ccc(CC3SC(=O)NC3=O)cc2)CCCCC1 (stereo not shown) [ciglitizone],IC50,HUVEC tube formation [1],2.7 µM
"CCCCCCCCCCCCCC(=O)O[C@@H]1[C@@H](C)[C@@]2(O)[C@@H](C=C(CO)C[C@]3(O)C(=O)C(C)=C[C@@H]23)[C@@H]2C(C)(C)[C@]12OC(C)=O [PMA, phorbol 12-myristate 13-acetate]",increase of MMP-9 mRNA levels between 24 h and 4 h,"MMP-9 mRNA; HUVEC in 3-D collagen gels, PMA 80 nM, bFGF and VEGF 40 ng/ml each",more than 2 fold
same,concentration giving maximal induction of tube formation,HUVEC tube formation [2]; [3],80 nM
same,tube formation (average tube length),HUVEC tube formation [2]; [3],dose-dependent increase
same,MMP-9 secretion into the culture medium,MMP-9 secretion; [3],dose-dependent stimulation
same,zymogen form of MMP-9 (92 kD) in culture supernatants,"MMP-9 secretion; gelatin zymography, PMA or PMA in combination with bFGF and VEGF",detected
same,MMP-2 secretion into the culture medium,MMP-2 secretion; [3],dose-dependent stimulation
same,active MMP-2 in supernatants compared with either growth factor alone,"MMP-2 secretion; gelatin zymography, PMA in the absence or presence of FGF and VEGF",more active MMP-2
CCCc1c(OCCCCc2nnn[nH]2)ccc(C(C)=O)c1O [LY 171883],inhibition of tube formation (FIG. 3B),HUVEC tube formation [1],do not inhibit
same,inhibition of tube formation,HUVEC tube formation [1]; [4],did not significantly inhibit
bFGF: recombinant basic fibroblast growth factor,MMP-9 mRNA levels,MMP-9 mRNA,at or below the limits of detection
C[C@@H]1C[C@@H]([C@H](O)CC2CC(=O)NC(=O)C2)C(=O)[C@@H](C)C1 [cycloheximide],formation of tube-like structures,HUVEC tube formation [1],completely block
VEGF,MMP-9 mRNA levels,MMP-9 mRNA,at or below the limits of detection
Cc1cccc(Nc2cc(Cl)nc(SCC(=O)O)n2)c1C [WY 14643],MMP-9 mRNA expression,"MMP-9 mRNA; 100 μM, 24 h",did not alter
same,MMP-2 mRNA expression,MMP-2 mRNA,did not alter
same,HUVEC tube formation,"HUVEC tube formation [2]; 100 μM, 3-D collagen gels",do not inhibit
same,MMP-9 protein secretion,"MMP-9 secretion; 100 μM, 24 h",did not alter
same,MMP-2 protein secretion,"MMP-2 secretion; 100 μM, 24 h",did not alter
same,inhibition of tube formation (FIG. 3B),HUVEC tube formation [1],do not inhibit
same,inhibition of tube formation,HUVEC tube formation [1]; [4],did not significantly inhibit
"Cc1c(C)c2c(c(C)c1O)CCC(C)(COc1ccc(CC3SC(=O)NC3=O)cc1)O2 (single isomer, unassigned; (+)) [troglitazone, (+)-5-[[4-[(3,4-dihydro-6-hydroxy-2,5,7,8-tetramethyl-2H-1-benzopyran-2-yl)methoxy]phenyl]methyl]-2,4-thiazolidinedione]",IC50,HUVEC tube formation [1],6.2 µM
CC1=C(/C=C/C(C)=C\C=C\C(C)=C\C(=O)O)C(C)(C)CCC1 [9-cis-retinoic acid],effect on tube formation,HUVEC tube formation [1]; 9-cis-retinoic acid 30 μM alone,no significant effect
"CN(CCOc1ccc(CC2SC(=O)NC2=O)cc1)c1ccccn1 (stereo not shown) [BRL49653, 5-[4-[2-[N-methyl-N-(2-pyridyl)amino]ethoxy]benzyl]thiazolidine-2,4-dione]",IC50,"HUVEC proliferation; Homo sapiens, HUVEC, read-out: inhibition of endothelial cell (HUVEC) proliferation, IC50",15.7 µM
CCCCC[C@H](O)/C=C/[C@H]1[C@H](O)CC(=O)[C@@H]1CCCCCCC(=O)O [PGE1],effect on HUVEC proliferation,HUVEC proliferation,did not affect
CCCCC[C@H](O)/C=C/[C@H]1[C@H](O)CC(=O)[C@@H]1C/C=C\CCCC(=O)O [PGE2],effect on HUVEC proliferation,HUVEC proliferation,did not affect
"Cc1c2oc3c(C)ccc(C(=O)N[C@@H]4C(=O)N[C@H](C(C)C)C(=O)N5CCC[C@H]5C(=O)N(C)CC(=O)N(C)[C@@H](C(C)C)C(=O)O[C@@H]4C)c3nc-2c(C(=O)N[C@@H]2C(=O)N[C@H](C(C)C)C(=O)N3CCC[C@H]3C(=O)N(C)CC(=O)N(C)[C@@H](C(C)C)C(=O)O[C@@H]2C)c(N)c1=O [actinomycin D] (I: T[dV]P[Sar][NMeV] / II: T[dV]P[Sar][NMeV]; ester I:1-I:C, II:1-II:C; linker I:N-II:N via Actinocin(9to1))",formation of tube-like structures,HUVEC tube formation [1],completely block
CCCCCCCC/C=C\CCCCCCCCCCCC(=O)O [erucic acid],inhibition of tube formation,HUVEC tube formation [1]; 200 μM,did not significantly inhibit
same,inhibition of tube formation (FIG. 3B),HUVEC tube formation [1],do not inhibit
